Assay results taken from ChEMBL document CHEMBL4842385, “Indirubin Derivatives as Dual Inhibitors Targeting Cyclin-Dependent Kinase and Histone Deacetylase for Treating Cancer” (J Med Chem, 2021).

Tests used:
[1] = molecular target: CDK6/cyclin D3 (Homo sapiens) (UniProt P30281+Q00534); details: dose 100.0 nM, time 10.0 min
[2] = molecular target: CDK4/Cyclin D3 (Homo sapiens) (UniProt P11802+P30281); details: dose 100.0 nM, time 10.0 min
[3] = molecular target: Histone deacetylase (Homo sapiens) (UniProt Q13547+O15379+Q9UBN7+Q92769+Q9UQL6+Q8WUI4+Q9BY41+Q96DB2+P56524+Q9UKV0+Q969S8); details: HeLa, Nucleus, dose 1000.0 nM, time 1.0 hrs
[4] = molecular target: CDK2/Cyclin A2 (Homo sapiens) (UniProt P24941+P20248); details: dose 100.0 nM, time 10.0 min
[5] = system: HeLa; assay: Antiproliferative activity against human HeLa cells assessed as cell growth inhibition measured after 48 hrs by CCK8 assay; format: functional, cell-based
[6] = system: MCF7; assay: Antiproliferative activity against human MCF7 cells assessed as cell growth inhibition measured after 48 hrs by CCK8 assay; format: functional, cell-based; details: MCF7, 48 h
[7] = system: A549; assay: Antiproliferative activity against human A549 cells assessed as cell growth inhibition measured after 48 hrs by CCK8 assay; format: functional, cell-based; details: A549, 48 h
[8] = system: K562; assay: Antiproliferative activity against human K562 cells assessed as cell growth inhibition measured after 48 hrs by CCK8 assay; format: functional, cell-based; details: K562, 48 h
[9] = system: HepG2; assay: Antiproliferative activity against human HepG2 cells assessed as cell growth inhibition measured after 48 hrs by CCK8 assay; format: functional, cell-based; details: HepG2, 48 h
[10] = system: A549; assay: Synergistic antiproliferative activity against human A549 cells assessed as combination index in presence of 2.5 to 46 uM tubastatin-A by Chou-Talalay method; format: functional; details: dose 2.5-46 µM
[11] = system: A549; assay: Synergistic antiproliferative activity against human A549 cells assessed as combination index in presence of vorinostat by Chou-Talalay method; format: functional

Row | inhibition [1] [%] | inhibition [2] [%] | inhibition [3] [%] | inhibition [4] [%] | SMILES | further results
1 | -0.8 | -0.2 | 9.1 | – | O=C(CCCO/N=C1/C(=C2/C(=O)Nc3ccc(Br)cc32)Nc2ccccc21)NO | –
2 | 63 | 18 | 82.6 | 54.9 | O=C(CCCCCCO/N=C1/C(=C2/C(=O)Nc3ccc(Cl)cc32)Nc2ccccc21)NO | –
3 | – | – | 90.8 | -1.4 | O=C(CCCCCCO/N=C1/C(=C2/C(=O)Nc3ccccc32)Nc2ccc(Cl)cc21)NO | –
4 | -0.7 | 3.5 | 21.4 | – | O=C(CCCCCO/N=C1/C(=C2/C(=O)Nc3ccc(Br)cc32)Nc2ccccc21)NO | –
5 | 8 | 17.9 | 60.2 | – | O=C(CCCCO/N=C1/C(=C2/C(=O)Nc3ccc(Br)cc32)Nc2ccccc21)NO | –
6 | 0.8 | 9.7 | 67.3 | 55.7 | O=C(CCCCCCO/N=C1/C(=C2/C(=O)Nc3ccc(I)cc32)Nc2ccccc21)NO | –
7 | 44.4 | 54.5 | 17.5 | – | O=C(CO/N=C1/C(=C2/C(=O)Nc3ccc(Br)cc32)Nc2ccccc21)NO | –
8 | -2.3 | -4.3 | 87.5 | 5 | O=C(CCCCCCO/N=C1/C(=C2/C(=O)Nc3ccc(Br)cc32)Nc2ccccc21)NO | –
9 | 4.6 | 2 | 91.1 | 2.1 | Cc1cccc2c1NC(=O)/C2=C1\Nc2ccccc2\C1=N/OCCCCCCC(=O)NO | –
10 | -2.7 | -4.5 | 90.6 | 6.6 | O=C(CCCCCCCO/N=C1/C(=C2/C(=O)Nc3ccccc32)Nc2ccccc21)NO | –
11 | 46.8 | 26.2 | 19.6 | 46.7 | O=C(CO/N=C1/C(=C2/C(=O)Nc3ccccc32)Nc2ccccc21)NO | –
12 | – | – | 94.4 | 4 | Cc1ccc2c(c1)NC(=C1\C(=O)Nc3ccccc31)/C2=N/OCCCCCCC(=O)NO | –
13 | 2.7 | -1.7 | 97.8 | 11.6 | Cc1ccc2c(c1)C(=N\OCCCCCCC(=O)NO)/C(=C1/C(=O)Nc3ccccc31)N2 | –
14 | -2.2 | 1.3 | 89.9 | 18.6 | Cc1ccc2c(c1)/C(=C1/Nc3ccccc3/C1=N\OCCCCCCC(=O)NO)C(=O)N2 | –
15 | 25.1 | 1 | 17.2 | 8.5 | O=C1Nc2ccccc2/C1=C1/Nc2ccccc2C1=O [INDIRUBIN] | IC50 [5]: > 10 µM; IC50 [6]: > 10 µM; IC50 [7]: > 10 µM; IC50 [8]: > 10 µM; IC50 [9]: > 10 µM
16 | 3.5 | 13 | 88.6 | 54 | COc1ccc2c(c1)/C(=C1/Nc3ccccc3/C1=N\OCCCCCCC(=O)NO)C(=O)N2 | –
17 | 0.8 | -5.8 | – | 2.9 | O=C(CCCCCCC(=O)Nc1ccccc1)NO | –
18 | – | – | 93.5 | 5.9 | COc1ccc2c(c1)C(=N\OCCCCCCC(=O)NO)/C(=C1/C(=O)Nc3ccccc31)N2 | –
19 | 6.5 | 6.1 | 98.1 | 14.6 | O=C(CCCCCCO/N=C1/C(=C2/C(=O)Nc3ccccc32)Nc2ccccc21)NO | –
20 | 28.8 | 10.2 | 89.9 | 30 | O=C(CCCCCO/N=C1/C(=C2/C(=O)Nc3ccccc32)Nc2ccccc21)NO | –
21 | 46.6 | -1.5 | 15 | 33.9 | O=C1Nc2ccccc2/C1=C1/Nc2ccccc2/C1=N\O | –
22 | 45.4 | 21.1 | 58.3 | 47.4 | O=C(CCCCO/N=C1/C(=C2/C(=O)Nc3ccccc32)Nc2ccccc21)NO | –
23 | 1 | 1.1 | 77.2 | 33.4 | O=C(CCCCCCO/N=C1/C(=C2/C(=O)Nc3ccc([N+](=O)[O-])cc32)Nc2ccccc21)NO | –
24 | – | – | 79.5 | 0.5 | O=C(CCCCCCO/N=C1/C(=C2/C(=O)Nc3ccccc32)Nc2ccc(Br)cc21)NO | –
25 | 4.9 | 17.2 | 82.7 | 45.4 | O=C(CCCCCCO/N=C1/C(=C2/C(=O)Nc3ccc(F)cc32)Nc2ccccc21)NO | –
26 | – | – | 76.6 | 6.2 | O=C(CCCCCCO/N=C1/C(=C2/C(=O)Nc3ccccc32)Nc2ccc([N+](=O)[O-])cc21)NO | –
27 | – | – | – | – | CC(=O)c1c(C)c2cnc(Nc3ccc(N4CCNCC4)cn3)nc2n(C2CCCC2)c1=O [PALBOCICLIB] | IC50 [5]: > 10 µM; CI [10]: 0.9; IC50 [6]: > 10 µM; IC50 [7]: 9.4 µM; IC50 [8]: > 10 µM; IC50 [9]: > 10 µM; CI [11]: 0.9
28 | 8.3 | -2.5 | 44.7 | 4.5 | COc1ccc2c(c1)NC(=O)/C2=C1\Nc2ccccc2\C1=N/OCCCCCCC(=O)NO | –
29 | 4 | -5.6 | 8 | 3 | O=C(CCCCCCO/N=C1/C(=C2/C(=O)Nc3c2cccc3C(F)(F)F)Nc2ccccc21)NO | –
